Assay results as given in patent US9988379B2, “GPR40 receptor agonist, methods of preparing the same, and pharmaceutical compositions containing the same as an active agent” (LG CHEM, LTD., priority 2012, dated 2018).

Target: T1, human GPR40 (Homo sapiens, UniProt O14842)
T1 construct: expressed in transfected cells; host or cells: CHO-K1
Test: Induction of Ca2+ (calcium flux assay) using human GPR40 expression cell line
Type: cell-based
Settings: read-out: EC0.5
Procedure: Evaluation of the Test Compounds for Induction of Ca^2+ Using Human GPR40 Expression Cell Line
The cell line expressing human GPR40 was generated by transfection of the GPR40 expression vector into CHO-K1 cell, and used in the following calcium flux assay.
The cell line was cultured in cell-culture medium (F-12 (Invitrogen) supplemented with 10% (v/v) FBS (Fetal Bovine Serum; Invitrogen), 0.5 mg/ml Geneticin (Invitrogen) and 1% (v/v) Antibiotic-Antimycotic solution (Invitrogen)) under the condition of 5% CO2 and 37° C. For calcium flux assay, the cells were diluted with the cell-culture medium to a concentration of 5×10^5 cells/ml, and the diluted cell suspension was dispensed in amount of 100 μl/well to a 96-well transparent bottom black polystyrene cell culture plate (Corning) and then cultured for 24 hours. The following concentrations of test compounds were added to these cells, and then the changes in intracellular calcium concentration were measured by FlexStation II384 (Molecular Devices). The following solution was prepared before the measurement.
First, a buffer solution for assay was prepared for use in the manufacture of fluorescent dye solution. This buffer solution was prepared by adding 1M HEPES solution (Invitrogen) to HBSS (Hanks' Balanced Salt Solution) (Invitrogen) and then adding 1M NaOH (Nacalai Tesque) to adjust pH to 7.4. Then the fluorescent dye solution was prepared according to the manufacturer's instruction attached to Calcium 5 Assay Kit (Molecular Devices), and the final DMSO concentration was adjusted to 2%.
The fluorescent dye solution was added in an amount of 100 μl/well to supernatant of the cell culture plate cultured for 24 hours. The plate was cultured for 1 hour under the condition of 5% CO2 and 37° C. so that the fluorescent dye was inserted into the cell.
Test compounds (i.e., the compounds prepared in the Examples) dissolved in dimethyl sulfoxide (DMSO ACROS) were diluted 200-fold in the buffer solution for assay to prepare compound solutions corresponding to the respective concentrations. […] 50 μl of the prepared sample solutions was added to each well of 96-well polypropylene plates (NUNC), and thereby a compound plate was prepared. Finally, the compound plate and the cell culture plate cultured for 1 hour with the fluorescent dye were placed in FlexStation II384.
After the above pre-treatment, the change in the intracellular calcium concentration when each concentration of the test compound solutions was added at 50 μl was measured by FlexStation II^384.
Then, the relative activity values depending on the concentration of the compound were plotted using Prism 4 software (GraphPad) to calculate the EC0.5 value.

T1 sequence (O14842 whole entry): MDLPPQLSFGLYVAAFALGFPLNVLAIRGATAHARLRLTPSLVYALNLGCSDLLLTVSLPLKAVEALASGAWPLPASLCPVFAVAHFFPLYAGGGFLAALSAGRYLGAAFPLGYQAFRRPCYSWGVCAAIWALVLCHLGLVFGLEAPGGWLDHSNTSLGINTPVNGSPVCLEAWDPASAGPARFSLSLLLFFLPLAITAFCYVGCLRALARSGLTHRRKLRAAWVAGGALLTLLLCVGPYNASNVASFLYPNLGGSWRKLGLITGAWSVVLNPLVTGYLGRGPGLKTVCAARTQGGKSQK

Compound | EC50 [nM]
CC(C)n1ccc2ccc(CNc3ccc(CCC(=O)O)cc3)cc21 [Example 1] | 100
O=C(O)CCc1ccc(NCc2ccc3ccn(CCc4ccccc4)c3c2)cc1 [Example 4, 3-{4-[(1-phenethyl-1H-indol-6-ylmethyl)-amino]-phenyl}-propanoic acid] | 50
O=C(O)CCc1ccc(NCc2ccc3c(Cl)cn(Cc4ccccc4)c3c2)cc1 [Example 5, 3-{4-[(1-benzyl-3-chloro-1H-indol-6-ylmethyl)-amino]-phenyl}-propanoic acid] | 30
O=C(O)CCc1ccc(NCc2ccc3c(Cl)c(Cl)n(Cc4ccccc4)c3c2)cc1 [Example 6, 3-{4-[(1-benzyl-2,3-dichloro-1H-indol-6-ylmethyl)-amino]-phenyl}-propanoic acid] | 100
O=C(O)CCc1ccc(NCc2ccc3ccn(-c4ccsc4)c3c2Cl)cc1 [Example 8, 3-{4-[(7-chloro-1-thiophen-3-yl-1H-indol-6-ylmethyl)-amino]-phenyl}-propanoic acid] | ≥ 500
O=C(O)CCc1ccc(NCc2ccc3ccn(-c4ccc(F)cc4)c3c2Cl)cc1 [Example 9, 3-(4-{[7-chloro-1-(4-fluoro-phenyl)-1H-indol-6-ylmethyl]-amino}-phenyl)-propanoic acid] | 300
O=C(O)CCc1ccc(NCc2ccc3ccn(-c4ccc(F)cc4)c3c2)cc1 [Example 10, 3-(4-{[1-(4-fluoro-phenyl)-1H-indol-6-ylmethyl]-amino}-phenyl)-propanoic acid] | 700
O=C(O)CCc1ccc(NCc2ccc3ccn(CC4CCCCC4)c3c2Cl)cc1 [Example 11, 3-{4-[(7-chloro-1-cyclohexylmethyl-1H-indol-6-ylmethyl)-amino]-phenyl}-propanoic acid] | 400
O=C(O)CC1COc2cc(OCc3ccc4c(Cl)cn(Cc5ccccc5)c4c3)ccc21 (centres unmarked) [Example 12, [6-(1-benzyl-3-chloro-1H-indol-6-ylmethoxy)-2,3-dihydro-benzofuran-3-yl]-acetic acid] | 160
Cc1c(COc2ccc(CCC(=O)O)cc2)ccc2ccn(-c3ccc(F)cc3)c12 [Example 14, 3-{4-[1-(4-fluoro-phenyl)-7-methyl-1H-indol-6-ylmethoxy]-phenyl}-propanoic acid] | 30
O=C(O)CCc1ccc(OCc2ccc3ccn(Cc4ccccc4)c3c2Cl)cc1 [Example 18, 3-[4-(1-benzyl-7-chloro-1H-indol-6-ylmethoxy)-phenyl]-propanoic acid] | 90
O=C(O)CCc1ccc(OCc2ccc3ccn(CC4CCCCC4)c3c2)cc1 [Example 19, 3-[4-(1-cyclohexylmethyl-1H-indol-6-ylmethoxy)-phenyl]-propanoic acid] | 400
Cn1cc(Cc2ccccc2)c2cc(COc3ccc(CCC(=O)O)cc3)ccc21 [Example 20, 3-[4-(3-benzyl-1-methyl-1H-indol-5-ylmethoxy)-phenyl]-propanoic acid] | 70
Cc1ccccc1-c1cn(C)c2ccc(COc3ccc(CCC(=O)O)cc3)cc12 [Example 21, 3-[4-(1-methyl-3-o-tolyl-1H-indol-5-ylmethoxy)-phenyl]-propanoic acid] | ≥ 500
Cc1cc(F)ccc1-n1cc(Cl)c2ccc(COc3ccc(CCC(=O)O)cc3)cc21 [Example 22, 3-{4-[3-chloro-1-(4-fluoro-2-methyl-phenyl)-1H-indol-6-ylmethoxy)-phenyl]-propanoic acid] | 40
CC#C[C@@H](CC(=O)O)c1ccc(OCc2ccc3ccn(Cc4ccc(S(C)(=O)=O)cc4)c3c2C)cc1 [Example 27, (S)-3-{4-[1-(4-methanesulfonyl-benzyl)-7-methyl-1H-indol-6-ylmethoxy]-phenyl}-hex-4-ynoic acid] | 30
CC#C[C@@H](CC(=O)O)c1ccc(OCc2ccc3ccn(Cc4ccc(C(F)(F)F)cc4)c3c2C)cc1 [Example 29, (S)-3-{4-[7-methyl-1-(4-trifluoromethyl-benzyl)-1H-indol-6-ylmethoxy]-phenyl}-hex-4-ynoic acid] | 70
CC#C[C@@H](CC(=O)O)c1ccc(OCc2ccc3ccn(Cc4cccc(COC)c4)c3c2C)cc1 [Example 30, (S)-3-{4-[1-(3-methoxymethyl-benzyl)-7-methyl-1H-indol-6-ylmethoxy]-phenyl}-hex-4-ynoic acid] | 40
CC#C[C@@H](CC(=O)O)c1ccc(OCc2cccc3c2ccn3Cc2ccccc2)cc1 [Example 31, (S)-3-[4-(1-benzyl-1H-indol-4-ylmethoxy)-phenyl]-hex-4-ynoic acid] | 30
CC#C[C@@H](CC(=O)O)c1ccc(OCc2cccc3c2ccn3-c2ccc(F)cc2C)cc1 [Example 32, (S)-3-{4-[1-(4-fluoro-2-methyl-phenyl)-1H-indol-4-ylmethoxy]-phenyl}-hex-4-ynoic acid] | 40
CC#C[C@@H](CC(=O)O)c1ccc(OCc2ccc3cc(CCOC)n(Cc4ccccc4)c3c2)cc1 [Example 34, (S)-3-{4-[1-benzyl-2-(2-methoxy-ethyl)-1H-indol-6-ylmethoxy]-phenyl}-hex-4-ynoic acid] | 40

Other lines, results leading:

EC50 [nM] | Compound
30 | O=C(O)CCc1ccc(NCc2ccc3ccn(Cc4ccccc4)c3c2)cc1 [Example 2, 3-{4-[(1-benzyl-1H-indol-6-ylmethyl)-amino]-phenyl}-propanoic acid]
10 | O=C(O)CCc1ccc(NCc2ccc3ccn(-c4ccsc4)c3c2)cc1 [Example 3, 3-{4-[(1-thiophen-3-yl-1H-indol-6-ylmethyl)-amino]-phenyl}-propanoic acid]
20 | O=C(O)CCc1ccc(NCc2ccc3ccn(Cc4ccccc4)c3c2Cl)cc1 [Example 7, 3-{4-[(1-benzyl-7-chloro-1H-indol-6-ylmethyl)-amino]-phenyl}-propanoic acid]
20 | O=C(O)CCc1ccc(OCc2ccc3ccn(-c4ccsc4)c3c2)cc1 [Example 13, 3-[4-(1-thiophen-3-yl-1H-indol-6-ylmethoxy)-phenyl]-propanoic acid]
10 | Cc1c(COc2ccc(CCC(=O)O)cc2)ccc2ccn(Cc3ccccc3)c12 [Example 15, 3-[4-(1-benzyl-7-methyl-1H-indol-6-ylmethoxy)-phenyl]-propanoic acid]
20 | Cc1c(COc2ccc(CCC(=O)O)cc2)ccc2ccn(-c3ccsc3)c12 [Example 16, 3-[4-(7-methyl-1-thiophen-3-yl-1H-indol-6-ylmethoxy)-phenyl]-propanoic acid]
7 | Cc1cc(F)ccc1-n1ccc2ccc(COc3ccc(CCC(=O)O)cc3)cc21 [Example 17, 3-{4-[1-(4-fluoro-2-methyl-phenyl)-1H-indol-6-ylmethoxy]-phenyl}-propanoic acid]
4 | Cc1cc(F)ccc1-n1ccc2cc(F)c(COc3ccc(CCC(=O)O)cc3)cc21 [Example 23, 3-{4-[5-fluoro-1-(4-fluoro-2-methyl-phenyl)-1H-indol-6-ylmethoxy)-phenyl]-propanoic acid]
20 | Cc1cc(F)ccc1-n1ccc2ccc(COc3ccc4c(c3)OCC4CC(=O)O)cc21 (centres unmarked) [Example 24, {6-[1-(4-fluoro-2-methyl-phenyl)-1H-indol-6-ylmethoxy]-2,3-dihydro-benzofuran-3-yl}-acetic acid]
20 | CC#C[C@@H](CC(=O)O)c1ccc(OCc2ccc3ccn(Cc4ccccc4)c3c2C)cc1 [Example 25, (S)-3-[4-(1-benzyl-7-methyl-1H-indol-6-ylmethoxy)-phenyl]-hex-4-ynoic acid]
20 | CC#C[C@@H](CC(=O)O)c1ccc(OCc2ccc3ccn(-c4ccc(F)cc4C)c3c2)cc1 [Example 26, (S)-3-{4-[1-(4-fluoro-2-methyl-phenyl)-1H-indol-6-ylmethoxy]-phenyl}-hex-4-ynoic acid]
10 | CC#C[C@@H](CC(=O)O)c1ccc(OCc2ccc3ccn(Cc4ccc(OC)cc4)c3c2C)cc1 [Example 28, (S)-3-{4-[1-(4-methoxy-benzyl)-7-methyl-1H-indol-6-ylmethoxy]-phenyl}-hex-4-ynoic acid]
20 | CC#C[C@@H](CC(=O)O)c1ccc(OCc2ccc3ccn(Cc4c(F)cccc4F)c3c2C)cc1 [Example 33, (S)-3-{4-[1-(2,6-difluoro-benzyl)-7-methyl-1H-indol-6-ylmethoxy]-phenyl}-hex-4-ynoic acid]
10 | CC#C[C@@H](CC(=O)O)c1ccc(OCc2ccc3ccn(Cc4cccc(CS(C)(=O)=O)c4)c3c2C)cc1 [Example 35, (S)-3-{4-[1-(3-methanesulfonylmethyl-benzyl)-7-methyl-1H-indol-6-ylmethoxy]-phenyl}-hex-4-ynoic acid]
